Measurements as given in US20230157296A1, “METHODS OF REDUCING FUSARIUM CONTAMINATION” (Taminco BV, priority 2020, published 2023).

What was measured:
[1] = system: Foc TR4 chlamydospores; test: Efficacy of metam sodium on chlamydospores of Foc TR4 in vitro (colonies on PDA plates); assay type: cell-based, Fusarium oxysporum f. sp. Cubense Tropical Race 4
Description: Foc TR4 chlamydospores were extracted from infested soil and incubated with a dilution series of metam sodium for 5 min and 60 min at room temperature. Thereafter, the samples were diluted 10X to get reduction of the treatment and sufficient dilution of chlamydospores to avoid lack of resolution when grown on plate. Aliquots of 100 µl were plated on PDA plates in duplicate and incubated for 3 days at 25° C. Plates were photographed and scored.

[2] = system: Cavendish banana plants; test: Musa field soil injection of metam sodium at 30 cm and 60 cm: banana plant growth and stage; assay type: in vivo
Description: (§1) Metam Sodium Application. Metam sodium 510 SL (equivalent to 42% w/w) was applied to soil at the following doses: 0 liters per hectare (L/ha), 750 L/ha, 1500 L/ha, 2250 L/ha, 3000 L/ha.
(§2) Prior to injection, soil was prepared using a rototiller to break the soil structure from 0 cm to 80 cm deep, allowing for the smooth and even injection application by an injection machine. The soil was then leveled and made uniform, and the metam sodium was applied at two depths: 30 cm and 60 cm, using injection methods. The temperature was at a minimum of 10° C. and soil humidity was between 50 and 60% holding capacity, allowing the applied product to transform from metam sodium (liquid) to MITC (gas).
(§3) The application was made using an injection machine wherein the machine lowered shanks and began moving forward such that the shanks lowered to a depth of 60 cm and injectors applied the metam sodium into the soil. When the injection at 60 cm was complete, the process was repeated for the entire field at 30 cm. The treated soil in the field was then sealed using a packer roller (which was part of the injection machinery, located at the back end of the machine), after each application.
Plant Selection and Transplantation. Cavendish banana plants were used for this investigation. In order to avoid plants already contaminated by other soil, all plants were produced in vitro using art-recognized methods. Plants were transplanted into the field 14 days after the final soil reading was taken (21 days after treatment).
Data Gathering. Data were gathered at monthly intervals beginning three months after banana plants were transplanted. A total of three data collection sessions were conducted. Data including the number of leaves, plant height, and girth size were collected.

[3] = system: F. oxysporum f. sp. cubense (Foc TR4); test: Panama disease analysis of soil samples after metam sodium field injection; assay type: in vivo, Fusarium oxysporum f. sp. Cubense Tropical Race 4
Description: as §1, §2, §3
Soil Analysis. Soil samples were obtained at 20, 40, and 60 cm before application and every 24 hours beginning 48 hours after application, for seven days.
Plant Pathology Analysis. Soil samples used for Panama Disease and nematode analyses were aseptically isolated in culture medium and incubated for seven days at room temperature. Organisms were identified as follows: 20 grams of composite soil sample was diluted with 40 mL distilled water (dH2O); 1 drop of Tween 20 detergent was added, and the sample mixed. A 1 mL aliquot was taken from the solution and diluted with 9 mL dH2O; three further serial dilutions were made. From each dilution, 100 µL were spread on solid Komada growth medium (Sun et al., Phytopathology 68: 1672-1673, 1978). Growth could be seen 7 days after inoculation.

[4] = 750 L/ha, six months after treatment
[5] = 1500 L/ha, six months after treatment
[6] = 2250 L/ha, six months after treatment
[7] = 3000 L/ha, six months after treatment

With `CNC(=S)[S-].[Na+]` [metam sodium, sodium N-methyldithiocarbamate] the “reducing the number of surviving chlamydospores, measured as growing colonies” value ([1]; 100X dilution, prolonged incubation (60 min vs 5 min)) was “more effective”, the “reduction in viability of Foc TR4 chlamydospores” value ([1]; First test, dilutions from 1000 up to 10 X 10^6-fold, 60 min) was “No significant reduction in viability” and the “efficacy on chlamydospores (colonies on PDA plates)” value (“efficacy on chlamydospores” below) ([1]; Second test, 10X and 100X dilutions) was “(partially) effective”. For the same compound, the “number of chlamydospores that survived” value ([1]; Second test, dilutions of 1000X and more) was “did not affect”, the “efficacy on chlamydospores” value ([1]; dilution of 10X, incubation time 5 minutes) was “effective” and the “efficacy on chlamydospores” value ([1]; dilution of 100X, both 5 and 60 minutes) was “less effective”. For the same compound, the “effectiveness against Foc TR4 chlamydospores” value ([1]; in vitro conditions, dependent on high concentrations) was “effective”, the “effect on average girth size of banana plant” value ([2]; 750 L/ha) was ~ 1 cm and the “increase in average height of banana plant” value ([2]; 750 L/ha) was ~ 5 cm. For the same compound, the “effect on plants reaching bagging stage” value [2, 4] was “did not have a meaningful effect”, the “percent of plants at either shooting or bagging stage” value [2, 4] was 11% and the “percent of plants at shooting stage” value [2, 4] was 9%. For the same compound, the “increase in average girth size of banana plant” value ([2]; 1500-3000 L/ha) was 4-6 cm, the “increase in average height of banana plant” value ([2]; 1500-3000 L/ha) was 20-23 cm and the “percent of plants at either shooting or bagging stage” value [2, 5] was 28%. For the same compound, the “percent of plants at shooting stage” value [2, 5] was 10%, the “percent of plants at bagging stage” value ([2]; 1500 to 3000 L/ha, six months after treatment) was 11-19% and the “percent of plants at either shooting or bagging stage” value [2, 6] was 27%. The “percent of plants at shooting stage” value [2, 6] was 17%, the “percent of plants at either shooting or bagging stage” value [2, 7] was 35% and the “percent of plants at shooting stage” value [2, 7] was 22%. The “leaf increase (average number of leaves per banana plant)” value ([2]; regardless of dose applied) was “roughly 1.5 fold”, the “Panama Disease F. oxysporum f. sp. cubense” value ([3]; Day 1, 20 cm, T2 750 L/ha) was “-” and the “Panama Disease F. oxysporum f. sp. cubense” value ([3]; Day 1, 20 cm, T3 1500 L/ha) was “-”. The “Panama Disease F. oxysporum f. sp. cubense” value ([3]; Day 1, 20 cm, T4 2250 L/ha) was “-”, the “Panama Disease F. oxysporum f. sp. cubense” value ([3]; Day 1, 20 cm, T5 3000 L/ha) was “-” and the “Panama Disease F. oxysporum f. sp. cubense” value ([3]; Day 1, 40 cm, T2 750 L/ha) was “-”. For the same compound, the “Panama Disease F. oxysporum f. sp. cubense” value ([3]; Day 1, 40 cm, T3 1500 L/ha) was “-”, the “Panama Disease F. oxysporum f. sp. cubense” value ([3]; Day 1, 40 cm, T4 2250 L/ha) was “-” and the “Panama Disease F. oxysporum f. sp. cubense” value ([3]; Day 1, 40 cm, T5 3000 L/ha) was “-”. For the same compound, the “Panama Disease F. oxysporum f. sp. cubense” value ([3]; Day 1, 60 cm, T2 750 L/ha) was “-”, the “Panama Disease F. oxysporum f. sp. cubense” value ([3]; Day 1, 60 cm, T3 1500 L/ha) was “-” and the “Panama Disease F. oxysporum f. sp. cubense” value ([3]; Day 1, 60 cm, T4 2250 L/ha) was “-”. For the same compound, the “Panama Disease F. oxysporum f. sp. cubense” value ([3]; Day 1, 60 cm, T5 3000 L/ha) was “-”, the “Panama Disease F. oxysporum f. sp. cubense” value ([3]; Day 2, 20 cm, T2 750 L/ha) was “-” and the “Panama Disease F. oxysporum f. sp. cubense” value ([3]; Day 2, 20 cm, T3 1500 L/ha) was “-”. For the same compound, the “Panama Disease F. oxysporum f. sp. cubense” value ([3]; Day 2, 20 cm, T4 2250 L/ha) was “-”, the “Panama Disease F. oxysporum f. sp. cubense” value ([3]; Day 2, 20 cm, T5 3000 L/ha) was “-” and the “Panama Disease F. oxysporum f. sp. cubense” value ([3]; Day 2, 40 cm, T2 750 L/ha) was “-”. For the same compound, the “Panama Disease F. oxysporum f. sp. cubense” value ([3]; Day 2, 40 cm, T3 1500 L/ha) was “-”, the “Panama Disease F. oxysporum f. sp. cubense” value ([3]; Day 2, 40 cm, T4 2250 L/ha) was “-” and the “Panama Disease F. oxysporum f. sp. cubense” value ([3]; Day 2, 40 cm, T5 3000 L/ha) was “-”. The “Panama Disease F. oxysporum f. sp. cubense” value ([3]; Day 2, 60 cm, T2 750 L/ha) was “-”, the “Panama Disease F. oxysporum f. sp. cubense” value ([3]; Day 2, 60 cm, T3 1500 L/ha) was “-” and the “Panama Disease F. oxysporum f. sp. cubense” value ([3]; Day 2, 60 cm, T4 2250 L/ha) was “-”. The “Panama Disease F. oxysporum f. sp. cubense” value ([3]; Day 2, 60 cm, T5 3000 L/ha) was “-”, the “Panama Disease F. oxysporum f. sp. cubense” value ([3]; Day 3, 20 cm, T2 750 L/ha) was “-” and the “Panama Disease F. oxysporum f. sp. cubense” value ([3]; Day 3, 20 cm, T3 1500 L/ha) was “-”. The “Panama Disease F. oxysporum f. sp. cubense” value ([3]; Day 3, 20 cm, T4 2250 L/ha) was “-”, the “Panama Disease F. oxysporum f. sp. cubense” value ([3]; Day 3, 20 cm, T5 3000 L/ha) was “-” and the “Panama Disease F. oxysporum f. sp. cubense” value ([3]; Day 3, 40 cm, T2 750 L/ha) was “-”. For the same compound, the “Panama Disease F. oxysporum f. sp. cubense” value ([3]; Day 3, 40 cm, T3 1500 L/ha) was “-” and the “Panama Disease F. oxysporum f. sp. cubense” value ([3]; Day 3, 40 cm, T4 2250 L/ha) was “-”.
